Measurements: patent US4626540A, “Substituted 1-amino-4-nitro-acridinones and methods of treating bacterial infections and leukemia with them” (Warner-Lambert Company, priority 1984, dated 1986)
In brackets after ≈: the same amount, converted by molar mass. Structures can show the parent of a compound that is named as a salt.

Tests used:
[1] = tested on: L1210 murine leukemia cell lines; assay: In vitro antitumor screening (PDC test), L1210 murine leukemia cell growth; format: cell-based; conditions: Mus musculus, 72 h; L1210 cells, 37° C., three days; value is ID50 multiplied by 10^7
Procedure: Another test protocol is the in vitro antitumor screening (PDC test) of compounds of the present invention on L1210 murine leukemia cell lines. L1210 cells, a murine leukemia cell line, were grown in RPMI 1640 supplemented with 5% fetal bovine serum and gentamicin (50 μg/ml).
Drug dilutions were prepared in the apropriate solvent and 20 μl of each dilution were added to 24-well Linbro tissue culture plats, followed by the addition of M 2.0 ml of cell suspension containing 3×10^4 cells per ml. Solvent and medium controls were included in each test. After incubation at 37° C. for three days in 5% CO2, the contents of each well were removed and the cells counted in a ZBI Coulter counter. Percent growth was calculated relative to the controls and the levels of drug activity wre expressed as ID50 in moles per liter using probit paper.

[2] = tested on: Corynebacterium Sp. ATCC 21698; assay: In vitro antibacterial (ABMF) microdilution test, Corynebacterium Sp.; format: cell-based; conditions: ATCC21698, Mueller-Hinton broth, 37° C., 16-24 hours, read-out: ABMF minimal inhibitory conc, Coryn. Species
Source text: (§1) Still another test protocol is the in vitro antibacterial (ABMF) test which is a recognized standard microdilution susceptibility procedure in Mueller-Hinton broth against Gram-positive and Gram-negative bacterial test organisms. The procedure is a modification of a state-of-the-art procedure reported in Manual of Clinical Microbiology, Lennette, E. H., ed., by Barry, A. L. and C. Thornsberry at pages 463-474 and by Gavan, T. L. and A. L. Barry at pages 459-462, American Society for Microbiology, Washington, 1980.
(§2) In the test, a given bacterial culture is used to inoculate individual test wells of microdilution trays containing growth medium and test compound, the latter in a microdilution series: 1000, 333, 111, 37, 12, 4, 1.4, and 0.46 micrograms per milliliter. […] For convenience, values are reported for Escherichia coli, Corynebacterium Sp. ATCC 21698, Branhamella catarrhalis, Streptococcus pneumoniae, and Bacillus cereus.

HCT-8 cells = assay: In vitro proliferating human colon adenocarcinoma (HCA) cell screen, HCT-8 cells; format: cell-based; conditions: 60-65 hours at 37° C., value is ID50 multiplied by 10^7;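 further: ID50 is the molar concentration giving 50% growth inhibition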
Procedure: One test protocol is the in vitro proliferating human colon adenocarcinoma (HCA) cell screen. In this test, HCT-8 cells (HCA cell line received from Yale University) are trypsinized using trypsin-EDTA. A single cell suspension is achieved by passing the cells through a 26-gauge needle with a 20-cc syringe. A cell suspension is prepared using RPMI 1640+10% FCS+50 μg/ml gentamicin sulfate with a cell concentration of approximately 5,000 cells/ml. The cell suspension is dispensed in Linbro 24-well plates; 1 ml/well. The plates are incubated for approximately 48 hours at 37° C. in a 5% CO2 atmosphere. At this time test compounds are added in the appropriate concentration. Ten μl of the appropriate dilution is added to each well for a titration test. The plates are reincubated an additional 60-65 hours at 37° C. in a 5% CO2 atmosphere. The cells are lysed using a mix of cationic surfactant, glacial acetic acid and sodium chloride. Two ml of the lysed cell suspension from each well is added to 8 ml of diluent. The number of nuclei is determined using a Coulter counter (ZBI model), and a percent growth for each drug concentration is calculated.

Escherichia coli = assay: In vitro antibacterial (ABMF) microdilution test, Escherichia coli; format: cell-based; conditions: Mueller-Hinton broth, 37° C., 16-24 hours, read-out: ABMF minimal inhibitory conc, E. coli
Source text: as §1, §2

Bacillus cereus = assay: In vitro antibacterial (ABMF) microdilution test, Bacillus cereus; format: cell-based; conditions: Mueller-Hinton broth, 37° C., 16-24 hours, read-out: ABMF minimal inhibitory conc, B. cer.
Source text: as §1, §2

Branhamella catarrhalis = assay: In vitro antibacterial (ABMF) microdilution test, Branhamella catarrhalis; format: cell-based; conditions: Moraxella catarrhalis; Mueller-Hinton broth, 37° C., 16-24 hours; read-out: ABMF minimal inhibitory conc, B. cat.
Source text: as §1, §2

[3] = tested on: lymphocytic leukemia P388; assay: In vivo lymphocytic leukemia P388 test; design: species or system CD2 F1 mice; conditions: Mus musculus, P388, ip, intraperitoneal, once daily for five days, survival time treated/control, read-out: P388 in vivo T/C × 100
Procedure: Another test protocol is the in vivo lymphocytic leukemia P388 test. the animals used are either male or female CD2 F1 mice, six or seven animals per test group. The tumor transplant is by intraperitoneal injection of dilute ascitic fluid containing cells of lymphocytic leukemia P388. The test compounds are administered intraperitoneally once daily for five consecutive days at various doses following tumor inoculation. The animals are weighed and survivors are recorded on a regular basis for 30 days. A compound is designated "toxic" if, at a given dose, all animals die prior to four days after the first injection of drug. A ratio of survival time for treated (T)/control (C) animals is calculated. A criterion for efficacy is a ratio T/C times 100 greater than or equal to 125. See Cancer Chemotherapy Reports, Part 3, 3, 1 (1972) for a comprehensive discussion of the protocol.

Streptococcus pneumoniae = assay: In vitro antibacterial (ABMF) microdilution test, Streptococcus pneumoniae; format: cell-based; conditions: Mueller-Hinton broth, 37° C., 16-24 hours, read-out: ABMF minimal inhibitory conc, S. pneu.
Source text: as §1, §2

IC50 [1] [nM] | MIC [2] [µg/mL] | IC50 (HCT-8 cells) [nM] | MIC (Escherichia coli) [µg/mL] | MIC (Bacillus cereus) [µg/mL] | MIC (Branhamella catarrhalis) [µg/mL] | MIC (Streptococcus pneumoniae) [µg/mL] | Structure (SMILES) | response vs control in vivo at 25 mg/kg [3] [%] | response vs control in vivo at 50 mg/kg [3] [%] | response vs control in vivo at 100 mg/kg [3] [%] | response vs control in vivo at 12.5 mg/kg [3] [%] | response vs control in vivo at 6.25 mg/kg [3] [%] | response vs control in vivo at 1.56 mg/kg ([3]; 1.56 mg/kg) [%] | response vs control in vivo at 3.12 mg/kg ([3]; 3.12 mg/kg) [%] | response vs control in vivo at 200 mg/kg ([3]; 200 mg/kg) [%]
330 | < 0.46 | 200 | 1.4 | 1.4 | < 0.46 | 1.4 | O=c1c2ccccc2[nH]c2c([N+](=O)[O-])ccc(NCCNCCO)c12 [Example 16, 1-[[2-[(2-hydroxyethyl)amino]ethyl]amino]-4-nitro-9(10H)-acridinone, methanesulfonate (1:1), hydrate (1:1)] | 125 | 159 | – | – | – | – | – | –
780 | 12.3 | 710 | 12.3 | 12.3 | 12.3 | 12.3 | COc1ccc2c(c1)c(=O)c1c(NCCCN(C)C)ccc([N+](=O)[O-])c1n2C.CS(=O)(=O)O [Example 34, 1-[[3-(Dimethylamino)propyl]amino]-7-methoxy-10-methyl-4-nitro-9(10H)-acridinone, methanesulfonate (1:1)] | – | 123 | 136 | – | – | – | – | –
320 | < 0.46 | 200 | < 0.46 | 12.3 | < 0.46 | 1.4 | CCOc1ccc2[nH]c3c([N+](=O)[O-])ccc(NCCCN(C)C)c3c(=O)c2c1.CS(=O)(=O)O [Example 23, 1-[[(Dimethylamino)propyl]amino]-7-ethoxy-4-nitro-9(10H)acridinone, methanesulfonate] | 157 | 210 | – | 135 | – | – | – | –
78 | 0.46 | 270 | 12.3 | 12.3 | < 0.46 | 4.1 | CCN(CC)CCCNc1ccc([N+](=O)[O-])c2[nH]c3ccc(OC)cc3c(=O)c12 [Example 26, 1-[[3-(Diethylamino)propyl]amino]-7-methoxy-4-nitro-9(10H)-acridinone, methanesulfonate (salt) (1:1)] | 142 | 161 | 198 | 127 | – | – | – | –
180 | < 0.46 | 120 | < 0.46 | 4.1 | 1.4 | 1.4 | CCOc1ccc2[nH]c3c([N+](=O)[O-])ccc(NCCNCCO)c3c(=O)c2c1.CS(=O)(=O)O [Example 17, 7-Ethoxy-1-[[2-[(2-hydroxyethyl)amino]ethyl]amino]-4-nitro-9(10H)-acridinone, methanesulfonate] | 124 | 138 | – | – | – | – | – | –
1200 | < 0.46 | 260 | 1.4 | 4.1 | < 0.46 | < 0.46 | COc1ccc2[nH]c3c([N+](=O)[O-])ccc(NCCCN(C)C)c3c(=O)c2c1 [Example 22, 1-[[3-(Dimethylaminopropyl)amino]-7-methoxy-4-nitro-9(10H)-acridinone, methanesulfonate (1:1), hemihydrate] | 178 | 225 | 205 | 156 | 138 | – | – | –
19 | 0.46 (≈ 1.29 µM) | 2.8 | < 0.46 | < 0.46 | < 0.46 | 0.46 (≈ 1.29 µM) | CN(C)CCCNc1ccc([N+](=O)[O-])c2[nH]c3ccc(O)cc3c(=O)c12 [Example 21] | – | – | – | – | 234 | 162 | 187 | –
1300 | 111 | 560 | > 1000 | > 1000 | > 1000 | 37 | CCN(CC)CCNc1ccc([N+](=O)[O-])c2[nH]c3ccc(N(C)C)cc3c(=O)c12.CS(=O)(=O)O [Example 7, 1-[[2-(Diethylamino)ethyl]amino]-7-(dimethylamino)-4-nitro-9(10H)-acridinone, methanesulfonate (1:1)] | – | 33 | 169 | – | – | – | – | –
810 | > 1000 | 360 | > 1000 | > 1000 | > 1000 | > 1000 | CCOc1ccc2[nH]c3c([N+](=O)[O-])ccc(NCCN(C)C)c3c(=O)c2c1.CS(=O)(=O)O [Example 10, 1-[[2-(Dimethylamino)ethyl]amino]-7-ethoxy-4-nitro-9(10H)-acridinone, methanesulfonate (1:1)] | 128 | 162 | 193 | – | – | – | – | 260
570 | < 0.46 | 200 | 1.4 | 4.1 | < 0.46 | < 0.46 | CN(C)CCCNc1ccc([N+](=O)[O-])c2[nH]c3ccccc3c(=O)c12.CS(=O)(=O)O [Example 20, 1-[[3-(Dimethylamino)propyl]amino]-4-nitro-9(10H)-acridinone, methanesulfonate (1:1)] | – | 144 | 189 | – | – | – | – | –

Structure (SMILES) | IC50 [1] [nM] | MIC [2] [µg/mL] | IC50 (HCT-8 cells) [nM] | MIC (Escherichia coli) [µg/mL] | MIC (Bacillus cereus) [µg/mL] | MIC (Branhamella catarrhalis) [µg/mL] | MIC (Streptococcus pneumoniae) [µg/mL] | response vs control in vivo at 25 mg/kg [3] [%] | response vs control in vivo at 50 mg/kg [3] [%] | response vs control in vivo at 100 mg/kg [3] [%] | response vs control in vivo at 12.5 mg/kg [3] [%] | response vs control in vivo at 6.25 mg/kg [3] [%] | response vs control in vivo at 1.56 mg/kg ([3]; 1.56 mg/kg) [%] | response vs control in vivo at 3.12 mg/kg ([3]; 3.12 mg/kg) [%] | response vs control in vivo at 200 mg/kg ([3]; 200 mg/kg) [%]
CCCCOc1ccc2[nH]c3c([N+](=O)[O-])ccc(NCCNCCO)c3c(=O)c2c1 [Example 18, 7-Butoxy-1-[[2-[(2-hydroxyethyl)amino]ethyl]amino]-4-nitro-9(10H)-acridinone, methanesulfonate, 0.3 hydrate] | 350 | 37 | 400 | 111 | 333 | 333 | 37 | 136 | – | – | 121 | – | – | – | –
